Source: publication PMC3085641 (Bioorganic & medicinal chemistry letters, 2011)

Biological target: dopamine transporter (DAT) (Rattus norvegicus, UniProt P23977)
Test: biochemical

Sequence of dopamine transporter (DAT) (P23977 whole entry): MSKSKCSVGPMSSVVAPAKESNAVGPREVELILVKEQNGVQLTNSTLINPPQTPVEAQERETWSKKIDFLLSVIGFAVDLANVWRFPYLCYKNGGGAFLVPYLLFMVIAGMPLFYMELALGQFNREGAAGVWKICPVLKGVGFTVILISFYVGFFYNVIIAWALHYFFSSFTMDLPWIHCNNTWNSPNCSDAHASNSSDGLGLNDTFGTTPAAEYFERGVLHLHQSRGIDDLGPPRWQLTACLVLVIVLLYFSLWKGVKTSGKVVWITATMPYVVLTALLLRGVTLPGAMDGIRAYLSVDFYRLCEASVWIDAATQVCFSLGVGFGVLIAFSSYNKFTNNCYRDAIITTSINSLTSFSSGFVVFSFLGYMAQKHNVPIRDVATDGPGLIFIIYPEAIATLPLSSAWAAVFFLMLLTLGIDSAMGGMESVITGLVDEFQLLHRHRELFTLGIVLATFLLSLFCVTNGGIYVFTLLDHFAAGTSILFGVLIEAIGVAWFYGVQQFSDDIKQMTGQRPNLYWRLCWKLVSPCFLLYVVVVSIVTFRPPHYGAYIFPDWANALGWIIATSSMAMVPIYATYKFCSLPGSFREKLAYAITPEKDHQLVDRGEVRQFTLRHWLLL

CN1C2CCC1[C@@H](CNc1ccc(Br)nc1)[C@@H](c1ccc(Cl)cc1)C2 (stereo partly shown) [Compound 6b]
Ki: 17 nM
